Test results as given in patent publication US9650405B2, “Modified sophorolipids as oil solubilizing agents” (Polytechnic Institute of New York University, priority 2010, dated 2017).

Key:
[1] = Lemon oil solubilization, sonication, droplet size by dynamic light scattering; type: physicochemical; conditions: for average droplet sizes after one month: lemon oil emulsions; for Emulsion Droplet Size / Emulsion Droplet Size, bottom emulsion layer / Emulsion Droplet Size, top emulsion layer: 1 weight-%
Protocol: MSL's used in this example are SL-hexyl ester (16), SL-octyl ester SL (17), and SL-dodecyl ester (18). To test the MSL capacity for lemon oil solubilization, the volume ratio of water to lemon oil, the concentration of surfactant, and the homogenization time (using a sonicator as the means of homogenization) were varied. Concentration of surfactant is calculated on a w/w basis relative to the mass of water being used. To form emulsions, the MSL or other surfactant is first dissolved in the water, oil is added to the solution, and finally the contents of the water/surfactant+oil system is sonicated. Subsequently, the emulsion is allowed to settle for 24 hours at 25° C. before measurements or visual observations are made.
To evaluate the stability of lemon oil solubilization, photographs of emulsions were recorded daily (after the initial 24 hours). Visual observations consisted of assessing solution clarity, extent of creaming and whether oil separation occurs. After selected time periods measurement of emulsion droplet size was performed by dynamic light scattering, which gives an average droplet size in the solution. […] If the emulsion had creamed (separated into two discreet emulsion layers) the average droplet size for each emulsion layer was determined. The results of this study are listed in Table 6, where the first number represents average droplet size in the top emulsion layer and the second represents the average droplet size in the bottom emulsion layer. […] A better performing emulsifier for this study is defined as functioning to form emulsions with smaller average particle size after the aging period.

[2] = Emulsification of paraffin and rapeseed oil by transalkylidenation MSLs; type: physicochemical; conditions: for change in emulsions during a 6-week aging period: 1 weight % surfactant, water:paraffin oil 1:1 (v/v), FIG. 22
Protocol: Mixtures of oil (paraffin or rapeseed) and water, in a 1:1 volume ratio, were prepared. MSL compounds 39, 40, and 41 at 1 weight % relative to water were each assessed as emulsifiers. Each mixture was agitated for 5 min using a homogenizer. […] This is in contrast to the studies above where sophorolipid esters and amides consisting of one hydrophobic arm formed oil-in-water mixtures. For compound 43 that has relatively more hydrophobic character than MSL compounds 39. 40 and 41, paraffin oil and water (1:1 volume ratio) were combined and MSL compound 43 (2 weight % to water) was then added. The mixture was agitated by a homogenizer for 5 minutes. […] The emulsion was stable during the 3 weeks it was monitored (FIG. 24). […] The cloudy parts are emulsified water, and the continuous phase is the oil. […] Condition: 15% (v/v) of water in rapeseeds oil, 1 weight % (relative to water) of compound 40 were mixed and stirred using a homogenizer for 5 minutes (scale bar: 100 μm).

[3] = Emulsion droplet size distribution, Coulter LS 230 analyzer; type: physicochemical; conditions: paraffin oil-to-water 7:3 v/v, 25° C.
Protocol: Emulsified oil droplet size (average and standard deviation) was measured after suitable dilution of the emulsion phase using a Coulter LS 230 analyzer. […] Relative to natural and lactonic SL, selected MSLs show improved properties as emulsifiers on paraffin oil.
After being aged for 3-months, emulsified oil droplet size (average and standard deviation) was measured after suitable dilution of the emulsion phase using a Coulter LS 230 analyzer and the results are listed in Table 5. […] However, increasing the surfactant concentration from 1 to 2% did result in substantially smaller emulsion-phase droplet sizes. […] This is evidence that MSL's can stabilize oil phases greatly decreasing their tendency to undergo coalescence. […] It follows that the results of 3-month aging studies support the utility of selected MSLs for formation and stabilization of oil-in-water emulsions of paraffin oil phases. One skilled in the art would expect that the ability of these MSLs to stabilize paraffin oil phases teaches that they would also stabilize oil phases of similar structure.

[4] = Crude oil clearing/displacement activity; conditions: 20 μL of 1 mg/mL solution
Protocol: Oil cleaning assays were performed using Louisiana Crude, Arabian Light Crude, and Prudhoe Bay Crude as the oil phase. In one study, the oil clearing/displacement activity of MSLs were assessed using a crude oil layer on top of sea water in order to simulate oil spill type conditions. Sea water (20 mL) was transferred to plastic Petri dishes and 20 μL of a crude oil type was added on top of the water to create an oil layer. Subsequently, a 20 μL aliquot of MSL solution (1 mg/mL) was added dropwise to the top of the oil layer. The instantaneous formation of an oil clearing zone as well as the diameter of the clearing zone was determined as a function of the dispersant used. […] Furthermore, the oil displacement activity of SL-ethyl ester and SL-butyl ester was slightly higher than Triton-X-100 for Arabian Light crude.

[5] = Emulsion stability based on phase separation; type: physicochemical
Protocol: The emulsion was obtained by homogenizing the oil and water mixture and was allowed to settle at room temperature for 24 hours. […] Then, this mixture was homogenized at 13,000 rpm for 2 minutes. Thereafter, the resulting emulsion was left unagitated at 25° C. for 24 hours. Surfactants which give a larger emulsion phase are denoted as having higher emulsion effectiveness (Process Safety and Environment protection, 2005, 83, 38-46). […] Thus, unexpectedly, that longer alkyl chains, at least up to butyl and hexyl, provided improved interfacial stability at the paraffin oil/water interface. […] Apparently, ester bonds of SL-esters are less disruptive to organization at the oil water interface than amide bonds of SL-amides. […] The acidic SL (3) gave an 8% emulsion layer, much lower than the MSL examples given herein. Similarly, the natural SL (1) mixture gave a 10% emulsion layer. This performance is also far below that of SL-butyl amide (24), hexyl amide (25), butyl ester (8) and hexyl ester (16).
After homogenized at 13,000 rpm for 2 minutes, the emulsions were kept at room temperature and separation of the respective oil, emulsion and water layers was recorded for up to 1 month.

[6] = Crude oil emulsification activity (turbidity at 610 nm); conditions: emulsifier 1 mg/mL
Protocol: Emulsification activity was assessed using Louisiana Crude, Arabian Light Crude, and Prudhoe Bay Crude as the oil phase. A 2 mL solution with emulsifier concentration of 1 mg/mL was prepared. A crude oil (10 mg) was added to the emulsifier aqueous solution, the mixture was vortexed for one minute and the emulsified mixture was allowed to stand for 20 minutes. Emulsification activity was determined by measuring turbidity of the emulsion mixture in a spectrophotometer at 610 nm. The results obtained using SL-ethyl ester, SL-butyl ester, the natural sophorolipid mixture and Triton X-100 as emulsifiers are expressed as D610 and are listed in Table 8. […] Furthermore, a remarkable improvement in emulsification activity was obtained for SL-butyl ester relative to the natural sophorolipid mixture. These comparative results for emulsification of Louisiana Crude, Arabian Light Crude, and Prudhoe Bay Crude oil phase could not be anticipated by one skilled in the art.

[7] = lemon oil/water 1/99, sonication 60 sec, 1 Week
[8] = lemon oil/water 1/99, sonication 60 sec, 5 Weeks
[9] = lemon oil/water 5/95, sonication 60 sec, 1 Week
[10] = lemon oil/water 5/95, sonication 60 sec, 5 Weeks
[11] = oil (paraffin or rapeseed) and water 1:1 volume ratio, 1 weight % relative to water
[12] = paraffin oil and water 1:1 volume ratio, 2 weight % to water
[13] = Arabian Light Crude on sea water
[14] = lemon oil/water 1/99, sonication 120 sec, 1 Week

Compound: CCCCCCCCOC(=O)CCCCCCCC=CCCCCCCC(C)OC1OC(CO)C(O)C(O)C1OC1OC(CO)C(O)C(O)C1O (stereo not drawn) [Compound 17, SL-octyl ester]
- average droplet sizes after one month [1]: below 1 μm
- Emulsion Droplet Size [1, 7]: 92 nm
- Emulsion Droplet Size ([1]; lemon oil/water 1/99, sonication 60 sec, 2 Days): 52 nm
- Emulsion Droplet Size [1, 8]: 183 nm
- Emulsion Droplet Size [1, 9]: 179 nm
- Emulsion Droplet Size ([1]; lemon oil/water 5/95, sonication 60 sec, 2 Days): 167 nm
- Emulsion Droplet Size [1, 10]: 325 nm

Compound: CCCCCCCCCCCCOC(=O)CCCCCCCC=CCCCCCCC(C)OC1OC(CO)C(O)C(O)C1OC1OC(CO)C(O)C(O)C1O (stereo not drawn) [Compound 18, SL-dodecyl ester]
- average droplet sizes after one month [1]: below 1 μm
- Emulsion Droplet Size [1, 7]: 238 nm
- Emulsion Droplet Size [1, 8]: 277 nm
- Emulsion Droplet Size, bottom emulsion layer [1, 9]: 327 nm
- Emulsion Droplet Size, top emulsion layer [1, 9]: 389 nm
- Emulsion Droplet Size, bottom emulsion layer [1, 10]: 208 nm
- Emulsion Droplet Size, top emulsion layer [1, 10]: 551 nm

Compound: COC(=O)/C=C/CCCCCCCC(=O)OC1C(COC(C)=O)OC(OC2C(OC(C)CCCCCC/C=C/C(=O)OC)OC(COC(C)=O)C(O)C2O)C(O)C1O (stereo not drawn) [Compound 39]
- change in emulsions during a 6-week aging period [2]: no substantial change
- emulsion type [2, 11]: water-in-oil emulsions
- time the emulsions were stable (monitored period) [2, 11]: ≥ 6 weeks

Compound: CCOC(=O)/C=C/CCCCCCCC(=O)OC1C(COC(C)=O)OC(OC2C(OC(C)CCCCCC/C=C/C(=O)OCC)OC(COC(C)=O)C(O)C2O)C(O)C1O (stereo not drawn) [Compound 40]
- emulsion stability after 6 weeks ([2]; 15% (v/v) of water in rapeseeds oil, 1 weight % relative to water): emulsion remained stable
- emulsion type [2, 11]: water-in-oil emulsions
- time the emulsions were stable (monitored period) [2, 11]: ≥ 6 weeks

Compound: CCCCOC(=O)/C=C/CCCCCCCC(=O)OC1C(COC(C)=O)OC(OC2C(OC(C)CCCCCC/C=C/C(=O)OCCCC)OC(COC(C)=O)C(O)C2O)C(O)C1O (stereo not drawn) [Compound 41]
- emulsion type [2, 11]: water-in-oil emulsions
- time the emulsions were stable (monitored period) [2, 11]: ≥ 6 weeks

Compound: CCCCCCCCCCCCOC(=O)/C=C/CCCCCCCC(=O)OC1C(COC(C)=O)OC(OC2C(OC(C)CCCCCC/C=C/C(=O)OCCCCCCCCCCCC)OC(COC(C)=O)C(O)C2O)C(O)C1O (stereo not drawn) [Compound 43]
- change in emulsions during a 6-week aging period [2]: no substantial change
- emulsion type [2, 12]: water-in-oil emulsion
- time the emulsion was stable (monitored period) [2, 12]: ≥ 3 weeks

Compound: CCCCCCCCCCCCOS(=O)(=O)[O-].[Na+] [SDS, Sodium dodecyl sulfate, reference compound]
- Average droplet size ([3]; 0.5 weight %, 24 hours): 2.3 ± 0.2 μm
- Average droplet size ([3]; 0.5 weight %, aged 3-months): 3.1 ± 0.1 μm
- Average droplet size ([3]; 1 weight %, 24 hours): 2.1 ± 0.1 μm
- Average droplet size ([3]; 1 weight %, aged 3-months): 2.7 ± 0.1 μm
- Average droplet size ([3]; 2 weight %, 24 hours): 1.6 ± 0.2 μm
- Average droplet size ([3]; 2 weight %, aged 3-months): 2.0 ± 0.1 μm
- Oil displacement activity (diameter of the clearing zone) [4, 13]: 0.65 ± 0.21 cm
- Oil displacement activity (diameter of the clearing zone) ([4]; Louisiana Crude on sea water): 0.5 ± 0.14 cm
- Oil displacement activity (diameter of the clearing zone) ([4]; Prudhoe Bay Crude on sea water): 1.2 ± 0.42 cm
- emulsion layer, start ([5]; oil/water 7/3, 2%-by-weight, start of aging): 90%
- emulsion layer percentage ([5]; paraffin oil/water 5/5, 2%-by-weight emulsifier, after 24 hours at 25° C.): 70%

Compound: Rhamnolipid [reference compound]
- Emulsion Droplet Size [1, 14]: 379 nm

Compound: TWEEN ® 60 [reference compound]
- Emulsion Droplet Size ([1]; lemon oil/water 1/99, sonication 120 sec, 1 Month): 233 nm
- Emulsion Droplet Size [1, 14]: 173 nm

Compound: Triton X-100 [reference compound]
- Emulsification activity (D610) ([6]; Arabian Crude): 0.17
- Emulsification activity (D610) ([6]; Louisiana Crude): 0.28
- Emulsification activity (D610) ([6]; Prudhoe Crude): 0.49
- Oil displacement activity (diameter of the clearing zone) [4, 13]: 6.05 ± 0.07 cm
- Oil displacement activity (diameter of the clearing zone) ([4]; Louisiana Crude on sea water): 5.5 ± 0.21 cm
- Oil displacement activity (diameter of the clearing zone) ([4]; Prudhoe Bay Crude on sea water): 7.8 ± 0.07 cm
